From patent publication US20250282819A1, “MITOCHONDRIA-[…] PEPTIDE THAT CAN BE […] DELIVERED AT NANOMOLAR CONCENTRATION, AND USE THEREOF” (CAMP THERAPEUTICS INC., priority 2021, published 2025)
Where a SMILES comes first, the peptide text is derived from it.

Key:
[1] = Cardiolipin binding assay, NBD fluorescence with liposomes
Experimental: To further validate specificity of CMP3013 for cardiolipin-rich membranes identified in Example 9, two model systems mimicking the inner mitochondrial membrane were constructed using POPC (1-palmitoyl-2-oleoyl-sn-glycero-3-phosphocholine) and POPE (1-palmitoyl-2-oleoyl-sn-glycero-3-phosphoethanolamine), and cardiolipin binding assays were performed using an NBD-labeled CMP3013 monomer (NBD-CMP3013m), according to the method described in Experimental Example 12.
For the association experiments, 1 μM of NBD-labeled peptide dissolved in PBS was prepared in a black 96-well plate. Liposome (POPC:POPE=2:1 or POPC:POPE=2:1, containing 10% cardiolipin) was added to the peptide until the desired concentration was achieved. The mixture of NBD-peptide and liposome was mixed well through pipetting, and then fluorescence emission of the sample was monitored (λex=467 nm, λem=536 nm).
For the association experiments depending on cardiolipin ratio, 1 μM of NBD-labeled peptide or C6-NBD dissolved in PBS was prepared in a black 96-well plate. Liposome (POPC:POPE=2:1, containing 0 to 20% cardiolipin) was added to the peptide until the desired concentration (5 μM) was achieved. This mixture was mixed well through pipetting and fluorescence emission of the sample was monitored (λex=467 nm, λem=536 nm).
For dissociation experiments, 1 μM of NBD-labeled peptide dissolved in PBS was prepared in a black 96-well plate. Liposome (POPC:POPE=2:1 or POPC:POPE=2:1, containing 10% cardiolipin) was added to the peptide until the desired concentration (100 μM) was achieved. The mixture of NBD-peptide and liposome was mixed well through pipetting and fluorescence intensity of the mixture was measured (λex=467 nm, λem=536 nm). The unlabeled peptide (acetylated peptide) was then added to the mixture and mixed well through pipetting. Incubation in the dark was performed for 10 minutes, and then changes in fluorescence intensity were monitored. Peptide addition and fluorescence measurement were repeated until the concentration of acetylated peptide reached 40 μM.

HeLa cells [2] = assay: Co-localization with endosome, lysosome and cardiolipin (NAO) markers; format: cell-based
Experimental: Next, to investigate whether mitochondrial damage affects the amount of peptide present in lysosomes, cardiolipin-specific targeting was investigated using NAO in the presence or absence of CCCP.
For microscopic observation, HeLa cells were cultured in glass-bottom dishes (SPL, 200350, Korea). The cells were then treated with peptides for 3 hours and stained with MitoTracker™ (Thermo Fisher Scientific, A1372, USA; 100 nM, 1 hr), nonyl acridine orange (NAO; Thermo Fisher Scientific, A1372; 100 nM, 1 hr), Hoechst 33342 ([…], 20 min), CellLight™ early endosomes-GFP (Thermo Fisher Scientific, C10586; […], 16 hr), and/or LysoTracker™ (Thermo Fisher Scientific, L7525; 50 nM, 30 min). The cells were then rinsed with PBS and HBSS was added thereto. Images of the stained cells were obtained using a microscope (Zeiss LSM 880 and ELYRA PS.1). To generate ultra-high resolution images, a structured illumination process was performed with ZEN Black software. Pearson r values were calculated by using ImageJ software.

C57BL/6 mice = assay: TAA-induced acute liver failure model
Experimental: Serum samples were obtained from blood collected from the heart on Day 6, and the samples were analyzed using a hematology analyzer (Hitachi Chemical Industries, Ltd., Japan). Blood AST (aspartate aminotransferase), ALT (alanine aminotransferase), and ALP (alkaline phosphatase) were measured and evaluated as liver injury markers.
Serum samples were obtained on the seventh day (Day 7) and analyzed using a hematology analyzer. Blood AST (aspartate aminotransferase), ALT (alanine aminotransferase), and ALP (alkaline phosphatase) were measured and evaluated as liver injury markers.

HeLa cells [3] = format: cell-based
Experimental: Cell-penetrating ability was evaluated using the fluorescently-labeled versions of the dimeric bundle peptides synthesized in Example 3, and measured as EC50 values according to the method described in Experimental Example 3.
1×10^5 HeLa cells were seeded into a 24-well plate. After 24 hours, the peptide was added to the cells and further incubation was performed for 3 hours. The incubated cells were harvested, washed with PBS, suspended in PBS, and then analyzed by fluorescence-activated cell sorting (FACS; BD Accuri, USA). The cells whose fluorescence intensity exceeds the maximum intensity of untreated cells were classified as fluorescence-positive cells.

HeLa cells [4] = assay: ATP levels in damaged cells pretreated with peptide; format: cell-based; conditions: HeLa cells, 10 or 30 nM; 1 μM antimycin A or 1 mM H2O2
Experimental: The relative ATP levels of cells were compared by fluorescence intensity according to the method described in Experimental Example 8, and mitochondrial damage was induced by treatment with two different mitochondrial damaging agents (1 μM of antimycin A or 1 mM of H2O2).
Cellular ATP levels were assessed using an ATP detection kit (Abcam, ab113849, USA) according to the manufacturer's instructions. Fluorescence luminescence was measured with a microplate reader (Promega, Glomax 96 microplate luminometer, USA).

[5] = Cytotoxicity by WST-1 assay; format: cell-based; conditions: human, HeLa cells, one day, read-out: concentration at which 50% of the cultured cells were killed
Experimental: The cytotoxicity was measured by WST-1 assay. Specifically, 1×10^4 HeLa cells were seeded into 96-well plates. After 24 hours, the cells were treated with different concentrations of CMP3013 peptide indicated in FIG. 12 and incubated for one day. At the end of the incubation, the culture medium was replaced with new culture medium, treatment with EZ-Cytox (DoGEN, South Korea) at 10 μL was performed per well, and incubation was performed for 30 minutes. Then, the absorbance was measured at 450 nm. As a result, it was identified that the cytotoxicity of CMP3013 was only observed at micromolar or higher levels, and the concentration, at which 50% of the cultured cells were killed, reached 10 micromolar (FIG. 12).

[6] = 1 mg/kg intravenous x3, TAA 100 mg/kg Day 5, serum Day 6
[7] = mice, 1 mg/kg intravenous, Days 0, 2, 4

With CC(=O)N[C@@H](CC1CCCCC1)C(=O)N[C@H]1CSSC[C@@H](C(=O)N[C@@H](CCCNC(=N)N)C(N)=O)NC(=O)[C@H](CC2CCCCC2)NC(=O)[C@H](CCCNC(=N)N)NC(=O)[C@H](CCCNC(=N)N)NC(=O)[C@H](CC2CCCCC2)NC(=O)[C@H](CC(C)C)NC(=O)[C@H](CCCNC(=N)N)NC(=O)[C@@H](NC(=O)[C@H](CC2CCCCC2)NC(C)=O)CSSC[C@@H](C(=O)N[C@@H](CCCNC(=N)N)C(N)=O)NC(=O)[C@H](CC2CCCCC2)NC(=O)[C@H](CCCNC(=N)N)NC(=O)[C@H](CCCNC(=N)N)NC(=O)[C@H](CC2CCCCC2)NC(=O)[C@H](CC(C)C)NC(=O)[C@H](CCCNC(=N)N)NC1=O [CMP3013] (HELM PEPTIDE1{[ac].[Cha].C.R.L.[Cha].R.R.[Cha].C.R.[am]}|PEPTIDE2{[ac].[Cha].C.R.L.[Cha].R.R.[Cha].C.R.[am]}$PEPTIDE1,PEPTIDE2,3:R3-10:R3|PEPTIDE1,PEPTIDE2,10:R3-3:R3$$$V2.0) as the molecule, how does the “stronger binding capacity for cardiolipin than SS-31” value [1] read?
Its value is “approximately 100 fold”.

And the “proportion of peptide present in lysosomes (Pearson r, CMP3013-Lysotracker)” value (HeLa cells [2]; absence of CCCP)?
Its value is 0.30.

And the “co-localization of CMP3013 with cardiolipin (NAO), Pearson r” value (HeLa cells [2]; not treated with CCCP)?
Its value is 0.08.

What about the “proportion of peptide present in lysosomes (Pearson r, CMP3013-Lysotracker)” value (HeLa cells [2]; presence of CCCP) of the same molecule?
Its value is 0.29.

And the “co-localization of CMP3013 with cardiolipin (NAO), Pearson r” value (HeLa cells [2]; treated with CCCP)?
The value was 0.43.

What about the “ALP decrease as compared with the TAA-administered group” value (C57BL/6 mice; 1 mg/kg intravenous x3) of the same molecule?
The value was 19%.

What about the “AST reduction as compared with the group having received TAA alone” value (C57BL/6 mice; 1 mg/kg intravenous x3) of the same molecule?
The value was 35%.

And the “blood ALP” value (C57BL/6 mice; [6])?
Its value is 462.00±81.10 U/L.

And the “blood ALT” value (C57BL/6 mice; [6])?
The value was 332.60±86.31 U/L.

And the “blood AST” value (C57BL/6 mice; [6])?
The value was 316.40±52.65 U/L.

And the “dose dependence of AST and ALT decrease” value (C57BL/6 mice; intraperitoneal 1, 5, or 10 mg/kg)?
Its value is “dose-dependent manner”.

And the “blood AST, ALT, and ALP” value (C57BL/6 mice; intraperitoneal x3, TAA 100 mg/kg Day 5, serum Day 7)?
The value was “all significantly reduced”.

And the adverse events (C57BL/6 mice; [7])?
Its adverse events is “no adverse events occurred”.

And the mortality (C57BL/6 mice; [7])?
The mortality was “no animals died”.

What about the weight loss (C57BL/6 mice; mice, TAA and/or CMP3013) of the same molecule?
Its weight loss is “no weight loss was observed”.

What about the “improvement in cell penetration rate as compared with SS-31” value (HeLa cells [3]) of the same molecule?
The value was “approximately 100 fold”.

What about the “level of EC50 value (cell-penetrating ability)” value (HeLa cells [3]; comparison of CMP3013, LR10, MPP1a, SS-31) of the same molecule?
Its value is “lowest EC50 value”.

What about the “ATP production promoting ability” value (HeLa cells [4]) of the same molecule?
The value was “promoting resumption of ATP production”.

What about the CC50 at 24 h [5] of the same molecule?
Its CC50 at 24 h is 10 µM.
